Literature values, collected in patent publication US7652014B2, “Substituted 6-cyclohexylalkyl substituted 2-quinolinones and 2-quinoxalinones as poly(ADP-ribose) polymerase inhibitors” (Janssen Pharmaceutica, priority 2003, dated 2010).

Experiments:
colitis = conditions: rats, trinitrobenzene sulfonic acid induced colitis, distal colon; cited from earlier work
[1] = tested on: infarct size caused by ischemia and reperfusion of the heart; conditions: rabbits, cited from earlier work

Row | SMILES | effect on inflammatory response in colitis (colitis) | reduction in infarct size in the heart ([1]; single injection 10 mg/kg, one minute before occlusion or one minute before reperfusion) | reduction in infarct size ([1]; single injection 1 mg/kg)
1 | NC(=O)c1cccc(N)c1 [3-amino-benzamide] | reduced the inflammatory response | 32-42% | 
2 | Oc1cccc2c(O)nccc12 [1,5-dihydroxyisoquinoline] |  |  | 38-48%
